According to patent US20020165281A1, “Treatment of anoxic encephalophathy by administration of N-acetylcystein” (priority 2001, published 2002):

Test system: anoxic encephalopathy and ischemic events
Assay: Clinical case reports of patients with anoxic encephalopathy or ischemic events treated with N-acetylcystein
Type: in vivo, human
From the text: A person was admitted to the intensive care unit in a deep coma. Several hours prior to the admission, they suffered from a persistent ventricular arrhythmia that led to a cardiac arrest. They required nine successive electroshocks in order to reestablish their regular cardiac rhythm. The total interruption time of their blood supply to the brain was considered to be more than ten minutes. […] Their pupils were fixed and dilated, and they were placed on a mechanical ventilation. As they were unable to trigger the ventilator by themself, they were placed on an automatic mode of mechanical ventilation. There was no improvement in their condition over the next forty-eight hours. A neurologist determined their condition to be irreversible and hopeless. A second neurologist concurred. During the forty-eight hour interval, the patient was given 600 mg of N-acetylcystein in a twenty percent solution, administered via a nasal-gastric tube every twelve hours. […] They awakened and was able to communicate by head nods and facial expressions.
A high school teacher went into a cardiac arrest while driving in their car. By the time they arrived at a hospital emergency room and was resuscitated, a period of twenty to thirty minutes of an interruption of the blood supply to the brain had elapsed. Even though the cardiac resuscitation efforts were successful, they remained in a deep coma, a vegetative state, and required a life supporting mechanical ventilation. Over the next two years, they remained on mechanical ventilation, gastrostomy tube feedings, and in a coma without any improvement in their cerebral or neurological functions. Their prognosis for recovery was considered hopeless.
Approximately two years after the cardiac arrest, they were administered 600 mg of N-acetylcystein in a twenty percent solution twice daily. Over the next several months, they made a remarkable recovery. […] They became alert and able to respond initially to tacit and aural stimuli, and later they were able to understand simple sentences.
A person lapsed into a coma from a cerebral hemorrhage secondary to a vascular stroke. As their condition continued to deteriorate, they required a life supporting mechanical ventilation. Several months later they developed a brain abscess that required a craniotomy. This was followed by the appearance of an intense seizure disorder.
Following the surgery, it became possible to gradually wean […] from the respirator, but […] remained in a semi-vegetative state, unable to respond to aural stimuli and fed by a gastrostomy tube. […] remained completely bedridden.
More than three years after the initial event, they were administered 600 mg of N-acetylcystein in a twenty percent solution twice daily via their gastrostomy tube. Over the next several months, they made a remarkable recovery. […] By the third month of treatment, they were able to sit in a wheelchair and express their wishes to be driven around the facility where they resided. By the fourth month of the treatment, they regained the capacity to express themself verbally even though it was restricted to a vocabulary of mono and disyllabic words. They also regained the ability to lift their head, which i previously lay flexed upon their chest, without the use of an assisting device. […] Their neurological and cerebral recoveries continued to progress.
A medical technician experienced a series of multiple strokes that led to a semi-comatose state lasting more than two years. Their medical condition deteriorated over time with the development of multi-organ failures. They required a mechanical ventilation and hemo-dialysis for life support. Three years after the onset of their condition and several months after all efforts to wean them from the respirator failed, they were initially administered 600 mg of N-acetylcystein in a twenty percent solution twice daily via a gastrostomy tube.

CC(=O)N[C@@H](CS)C(=O)O [N-acetylcystein]
Overall therapeutic efficacy indicated by the four cases (acute phase and many months or years after the initial event): reversing a coma as well as other neurological deficits
Breathing / respirator dependence, Case No. 1 (person on mechanical ventilation, 600 mg every twelve hours via nasal-gastric tube, forty-eight hour period): able to breath partially on their own without the respirator
Coma / neurological outcome, Case No. 2 (person, coma for two years after cardiac arrest, 600 mg in twenty percent solution twice daily, over several months): awakened from their coma
Verbal response, Case No. 2 (person, coma for two years, 600 mg twice daily, by the fourth month of treatment): able to respond verbally
Coma / neurological outcome, Case No. 1 (person, deep coma after cardiac arrest, 600 mg in twenty percent solution via nasal-gastric tube every twelve hours, forty-eight hour period): completely revived from their coma
Respirator dependence, Case No. 4 (person, multiple strokes, semi-comatose, ventilated, 600 mg twice daily via gastrostomy tube increased to 2400 mg daily): improved and no longer needed the respirator
Ambulation, Case No. 3 (person, previously bedridden, 600 mg twice daily via gastrostomy tube, by the fifth month of treatment): able to ambulate more than one hundred steps with the aid of a walker or the wheelchair
Neurological outcome, Case No. 3 (person, semi-vegetative state more than three years after cerebral hemorrhage/stroke, 600 mg twice daily via gastrostomy tube, over several months): became completely alert and able to respond to simple verbal commands
Respirator dependence, Case No. 2 (person, two years on mechanical ventilation, 600 mg twice daily): no longer needed the respirator
